Results published in patent publication US6033823A, “Mutated penicillin G acylase genes” (priority 1994, dated 2000).
Changes are numbered by the printed parent chain.

Experiments:
[1] = target: T1, Alcaligenes faecalis Penicillin G acylase mutant A:M143V (Alcaligenes faecalis, UniProt O34142, M169V); assay: Deacylation kinetics and phenylacetic acid product inhibition, mutant A:M143V; assay type: biochemical; conditions: from progress curves of NIPAB deacylation, 25° C., 0.1 M NaH2PO4.H2O buffer pH 7.5, read-out: Ki Phenylacetic acid (inhibition constant, dissociation constant)
T1 construct: alpha 202 aa, beta 551 aa; recombinant, E. coli host
T1 sequence (O34142 27-228 M169V): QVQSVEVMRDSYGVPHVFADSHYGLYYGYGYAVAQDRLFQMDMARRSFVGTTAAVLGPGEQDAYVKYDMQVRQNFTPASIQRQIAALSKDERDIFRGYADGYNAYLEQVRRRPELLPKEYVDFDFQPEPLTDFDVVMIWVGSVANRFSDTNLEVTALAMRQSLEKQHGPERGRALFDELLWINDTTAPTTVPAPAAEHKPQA
T1 sequence (O34142 266-816): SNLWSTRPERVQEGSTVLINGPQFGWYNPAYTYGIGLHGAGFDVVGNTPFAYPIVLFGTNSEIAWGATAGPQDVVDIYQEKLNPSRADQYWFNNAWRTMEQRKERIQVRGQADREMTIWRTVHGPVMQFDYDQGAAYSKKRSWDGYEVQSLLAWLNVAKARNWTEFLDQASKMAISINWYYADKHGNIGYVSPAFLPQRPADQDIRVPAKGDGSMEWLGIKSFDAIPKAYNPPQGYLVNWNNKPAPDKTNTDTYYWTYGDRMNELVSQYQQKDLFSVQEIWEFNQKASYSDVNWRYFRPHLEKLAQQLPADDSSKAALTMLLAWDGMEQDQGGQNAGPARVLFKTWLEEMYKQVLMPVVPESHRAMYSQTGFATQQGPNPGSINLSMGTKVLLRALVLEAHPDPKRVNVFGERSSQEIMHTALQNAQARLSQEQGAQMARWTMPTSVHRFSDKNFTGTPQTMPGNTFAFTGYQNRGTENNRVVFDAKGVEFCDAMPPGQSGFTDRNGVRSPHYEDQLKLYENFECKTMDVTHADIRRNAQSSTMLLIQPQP
Description: (§1) In order to determine enzymatic activity the acylases were incubated with substrate at room temperature in buffered solution. In case β-lactamase impurity was expected to be present in the enzyme preparations, 1.0 mM -lactamase inhibitor 6-bromo-penicillanic acid was added to the assay. The reactions were stopped by adding an excess PMSF. For some mutants which were less sensitive to PMSF inhibition, the reactions were stopped by adding 0.5 M HCl or 0.5 M acetic acid until the pH was between 3 and 4. When reactions were subsequently analysed by HPLC, the reactions were stopped by dilution with the correponding elution solvent (see table 1). […]
(§2) The composition of the reaction mixtures was determined by high-performanceliquid chromatography (HPLC)(table 1). Concentrations were determined by using standards of known concentration.
(§3) In a continuous assay Penicillin G acylase was assayed spectro-fotometrically with the chromogenic substrate NIPAB [6-nitro-3-phenylacetamido-benzoic acid]. The liberation of 3-amino-6-nitrobenzoic acid was monitored by measuring the extinction at 405 nm in a Kontron 610 kinetic spectrofotometer. […]
(§4) Initial rate measurements were performed with excess substrate over the enzyme. Catalytic parameters were derived from least-squares fitting of the measured initial rates plotted for various substrate concentrations according to the Michaelis-Menten equation. […]

[2] = target: T2, Alcaligenes faecalis Penicillin G acylase mutant B:L56K (Alcaligenes faecalis, UniProt O34142, L321K); assay: Deacylation kinetics and phenylacetic acid product inhibition, mutant B:L56K; assay type: biochemical; conditions: from progress curves of NIPAB deacylation, 25° C., 0.1 M NaH2PO4.H2O buffer pH 7.5, read-out: Ki Phenylacetic acid (inhibition constant, dissociation constant)
T2 construct: alpha 202 aa, beta 551 aa; recombinant, E. coli host
T2 sequence (O34142 27-228): T1 sequence (O34142 27-228 M169V) with V143M
T2 sequence (O34142 266-816 L321K): T1 sequence (O34142 266-816) with L56K
Description: as §1, §2, §3, §4

O=C(O)Cc1ccccc1 [phenylacetic acid]
Ki [1]: 74 µM
Ki [2]: 115 µM
